Measured values taken from patent US12384808B2, “Modulators of TNF-α activity” (Forward Therapeutics, Inc., priority 2022, dated 2025).
Read-outs that look alike come from different tables or passages of the source.

Target: TNFα (Homo sapiens, UniProt P01375)
Assay: TNFα Induced HEK Blue Cellular Assay
Type: cell-based
Outline: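 Reporter cells (10,000/well, DMEM + 10% FBS) with compound (final […] to 0.5 nM) stimulated with 100 pg/ml TNFα, 24 h at 37 °C, 5% CO2. Secreted alkaline phosphatase read at 620 nm; IC50 by 4-parameter logistic fit after background correction against stimulated/unstimulated DMSO controls.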

[1] = HEK Blue TNFα reporter cells, TNFα 100 pg/ml, 24 hrs at 37° C., secreted alkaline phosphatase (QUANTI-Blue) read at 620 nm, read-out: IC50 value

Sequence of TNFα (P01375 77-233 limits assumed): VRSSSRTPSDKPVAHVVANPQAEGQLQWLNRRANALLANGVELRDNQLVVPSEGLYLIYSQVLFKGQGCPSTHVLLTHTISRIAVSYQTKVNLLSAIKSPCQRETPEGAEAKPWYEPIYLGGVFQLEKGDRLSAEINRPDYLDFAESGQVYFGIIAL

Compound | IC50 [1] [nM] | IC50 [nM]
[2H]C([2H])([2H])N1C(=O)c2cccc(OC(F)F)c2[C@H]2C[C@@H]1c1nc3cc(F)c(-c4ccc(P(C)(C)=O)cc4)cc3n12 [Example 64, (7R,14R)-1-(difluoromethoxy)-11-(4-(dimethylphosphoryl)phenyl)-10-fluoro-6-(methyl-d3)-6,7-dihydro-7,14-methanobenzo[f]benzo[4,5]imidazo[1,2-a][1,4]diazocin-5(14H)-one] | 100 to 1000 | 
[2H]C([2H])([2H])N1C(=O)c2cccc(OC(F)F)c2[C@H]2C[C@@H]1c1nc3ccc(-c4ccc(P(C)(C)=O)cc4)cc3n12 [Example 65, (7R,14R)-1-(difluoromethoxy)-11-(4-(dimethylphosphoryl)phenyl)-6-(methyl-d3)-6,7-dihydro-7,14-methanobenzo[f]benzo[4,5]imidazo[1,2-a][1,4]diazocin-5(14H)-one] | < 100 | 
CP(C)(=O)c1ccc(-c2cc3c(cc2F)nc2n3[C@@H]3C[C@H]2NC(=O)c2cccc(OC(F)F)c23)cc1F [Example 66, (7R,14R)-1-(difluoromethoxy)-11-(4-(dimethylphosphoryl)-3-fluorophenyl)-10-fluoro-6,7-dihydro-7,14-methanobenzo[f]benzo[4,5]imidazo[1,2-a][1,4]diazocin-5(14H)-one] | < 100 | 
[2H]C([2H])([2H])N1C(=O)c2cccc(OC(F)F)c2[C@H]2C[C@@H]1c1nc3ccc(-c4ccc(CP(C)(C)=O)cc4F)cc3n12 [Example 67, (7R,14R)-1-(difluoromethoxy)-11-(4-((dimethylphosphoryl)methyl)-2-fluorophenyl)-6-(methyl-d3)-6,7-dihydro-7,14-methanobenzo[f]benzo[4,5]imidazo[1,2-a][1,4]diazocin-5(14H)-one] | < 100 | 
[2H]C([2H])([2H])N1C(=O)c2cccc(OC(F)F)c2[C@H]2C[C@@H]1c1nc3ccc(-c4ccc(CP(C)(C)=O)c(F)c4)cc3n12 [Example 68, (7R,14R)-1-(difluoromethoxy)-11-(4-((dimethylphosphoryl)methyl)-3-fluorophenyl)-6-(methyl-d3)-6,7-dihydro-7,14-methanobenzo[f]benzo[4,5]imidazo[1,2-a][1,4]diazocin-5(14H)-one] | < 100 | 
[2H]C([2H])([2H])N1C(=O)c2cccc(OC(F)F)c2[C@H]2C[C@@H]1c1nc3ccc(-c4cc(F)c(CP(C)(C)=O)c(F)c4)cc3n12 [Example 69, (7R,14R)-1-(difluoromethoxy)-11-(4-((dimethylphosphoryl)methyl)-3,5-difluorophenyl)-6-(methyl-d3)-6,7-dihydro-7,14-methanobenzo[f]benzo[4,5]imidazo[1,2-a][1,4]diazocin-5(14H)-one] | < 100 | 
[2H]C([2H])([2H])N1C(=O)c2cccc(OC(F)F)c2[C@H]2C[C@@H]1c1nc3ccc(-c4ccc(CP(C)(C)=O)cc4)cc3n12 [Example 70, (7R,14R)-1-(difluoromethoxy)-11-(4-((dimethylphosphoryl)methyl)phenyl)-6-(methyl-d3)-6,7-dihydro-7,14-methanobenzo[f]benzo[4,5]imidazo[1,2-a][1,4]diazocin-5(14H)-one] | < 100 | 
[2H]C([2H])([2H])N1C(=O)c2cccc(O)c2[C@H]2C[C@@H]1c1nc3ccc(-c4cc(F)c(P(C)(C)=O)cc4F)cc3n12 [Example 71, (7R,14R)-11-(4-(dimethylphosphoryl)-2,5-difluorophenyl)-1-hydroxy-6-(methyl-d3)-6,7-dihydro-7,14-methanobenzo[f]benzo[4,5]imidazo[1,2-a][1,4]diazocin-5(14H)-one] | 10000 to 30000 | 
CP(C)(=O)Cc1ccc(-c2ccc3nc4n(c3c2)[C@@H]2C[C@H]4NC(=O)c3cccc(OC(F)F)c32)cc1F [Example 72, (7R,14R)-1-(difluoromethoxy)-11-(4-((dimethylphosphoryl)methyl)-3-fluorophenyl)-6,7-dihydro-7,14-methanobenzo[f]benzo[4,5]imidazo[1,2-a][1,4]diazocin-5(14H)-one] | < 100 | 
CN1C(=O)c2cccc(OC(F)F)c2[C@H]2C[C@@H]1c1nc3ccc(-c4cc(F)c(CP(C)(C)=O)cc4F)cc3n12 [Example 73, (7R,14R)-1-(difluoromethoxy)-11-(4-((dimethylphosphoryl)methyl)-2,5-difluorophenyl)-6-methyl-6,7-dihydro-7,14-methanobenzo[f]benzo[4,5]imidazo[1,2-a][1,4]diazocin-5(14H)-one] | < 100 | 
[2H]C([2H])([2H])N1C(=O)c2cccc(OC)c2[C@H]2C[C@@H]1c1nc3ccc(-c4cc(F)c(P(C)(C)=O)cc4F)cc3n12 [Example 74, (7R,14R)-11-(4-(dimethylphosphoryl)-2,5-difluorophenyl)-1-methoxy-6-(methyl-d3)-6,7-dihydro-7,14-methanobenzo[f]benzo[4,5]imidazo[1,2-a][1,4]diazocin-5(14H)-one] | 100 to 1000 | 
[2H]C([2H])([2H])N1C(=O)c2cccc(OCC)c2[C@H]2C[C@@H]1c1nc3ccc(-c4cc(F)c(P(C)(C)=O)cc4F)cc3n12 [Example 75, (7R,14R)-11-(4-(dimethylphosphoryl)-2,5-difluorophenyl)-1-ethoxy-6-(methyl-d3)-6,7-dihydro-7,14-methanobenzo[f]benzo[4,5]imidazo[1,2-a][1,4]diazocin-5(14H)-one] | < 100 | 
[2H]C([2H])([2H])N1C(=O)c2cccc(OC(F)F)c2[C@H]2C[C@@H]1c1nc3ccc(-c4ccc(CP(C)(C)=O)c(F)c4F)cc3n12 [Example 76, (7R,14R)-1-(difluoromethoxy)-11-(4-((dimethylphosphoryl)methyl)-2,3-difluorophenyl)-6-(methyl-d3)-6,7-dihydro-7,14-methanobenzo[f]benzo[4,5]imidazo[1,2-a][1,4]diazocin-5(14H)-one] | < 100 | 
CN1C(=O)c2cccc(OC(F)F)c2[C@H]2C[C@@H]1c1nc3ccc(-c4cc(F)c(CP(C)(C)=O)c(F)c4)cc3n12 [Example 77, (7R,14R)-1-(difluoromethoxy)-11-(4-((dimethylphosphoryl)methyl)-3,5-difluorophenyl)-6-methyl-6,7-dihydro-7,14-methanobenzo[f]benzo[4,5]imidazo[1,2-a][1,4]diazocin-5(14H)-one] | < 100 | 
[2H]C([2H])([2H])N1C(=O)c2cccc(OC(F)F)c2[C@H]2C[C@@H]1c1nc3cc(F)c(-c4ccc(CP(C)(C)=O)c(F)c4)cc3n12 [Example 78, (7R,14R)-1-(difluoromethoxy)-11-(4-((dimethylphosphoryl)methyl)-3-fluorophenyl)-10-fluoro-6-(methyl-d3)-6,7-dihydro-7,14-methanobenzo[f]benzo[4,5]imidazo[1,2-a][1,4]diazocin-5(14H)-one] | < 100 | 
CN1C(=O)c2cccc(OC(F)F)c2[C@H]2C[C@@H]1c1nc3ccc(-c4ccc(CP(C)(C)=O)c(F)c4)cc3n12 [Example 79, (7R,14R)-1-(difluoromethoxy)-11-(4-((dimethylphosphoryl)methyl)-3-fluorophenyl)-6-methyl-6,7-dihydro-7,14-methanobenzo[f]benzo[4,5]imidazo[1,2-a][1,4]diazocin-5(14H)-one] | < 100 | 
CN1C(=O)c2cccc(OC(F)F)c2[C@H]2C[C@@H]1c1nc3ccc(-c4ccc(CP(C)(C)=O)cc4F)cc3n12 [Example 80, (7R,14R)-1-(difluoromethoxy)-11-(4-((dimethylphosphoryl)methyl)-2-fluorophenyl)-6-methyl-6,7-dihydro-7,14-methanobenzo[f]benzo[4,5]imidazo[1,2-a][1,4]diazocin-5(14H)-one] | < 100 | 
CP(C)(=O)Cc1c(F)cc(-c2ccc3nc4n(c3c2)[C@@H]2C[C@H]4NC(=O)c3cccc(OC(F)F)c32)cc1F [Example 81, (7R,14R)-1-(difluoromethoxy)-11-(4-((dimethylphosphoryl)methyl)-3,5-difluorophenyl)-6,7-dihydro-7,14-methanobenzo[f]benzo[4,5]imidazo[1,2-a][1,4]diazocin-5(14H)-one] | < 100 | 
CP(C)(=O)Cc1cc(F)c(-c2ccc3nc4n(c3c2)[C@@H]2C[C@H]4NC(=O)c3cccc(OC(F)F)c32)cc1F [Example 82, (7R,14R)-1-(difluoromethoxy)-11-(4-((dimethylphosphoryl)methyl)-2,5-difluorophenyl)-6,7-dihydro-7,14-methanobenzo[f]benzo[4,5]imidazo[1,2-a][1,4]diazocin-5(14H)-one] | 100 to 1000 | 
[2H]C([2H])([2H])N1C(=O)c2cccc(OC(F)F)c2[C@H]2C[C@@H]1c1nc3ccc(-c4ccc(CP(=O)(OC)OC)cc4)cc3n12 [Example 83, dimethyl (4-((7R,14R)-1-(difluoromethoxy)-6-(methyl-d3)-5-oxo-5,6,7,14-tetrahydro-7,14-methanobenzo[f]benzo[4,5]imidazo[1,2-a][1,4]diazocin-11-yl)benzyl)phosphonate] |  | < 100
[2H]C([2H])([2H])N1C(=O)c2cccc(OC(F)F)c2[C@H]2C[C@@H]1c1nc3ccc(-c4ccc(C(O)P(C)(C)=O)cc4)cc3n12 (stereo partly drawn) [Example 84, (7R,14R)-1-(difluoromethoxy)-11-(4-((dimethylphosphoryl)(hydroxy)methyl)phenyl)-6-(methyl-d3)-6,7-dihydro-7,14-methanobenzo[f]benzo[4,5]imidazo[1,2-a][1,4]diazocin-5(14H)-one] | < 100 | 
[2H]C([2H])([2H])N1C(=O)c2cccc(OC(F)F)c2[C@H]2C[C@@H]1c1nc3ccc(-c4cnc(P(C)(C)=O)cc4C)cc3n12 [Example 87, (7R,14R)-1-(difluoromethoxy)-11-(6-(dimethylphosphoryl)-4-methylpyridin-3-yl)-6-(methyl-d3)-6,7-dihydro-7,14-methanobenzo[f]benzo[4,5]imidazo[1,2-a][1,4]diazocin-5(14H)-one] | 100 to 1000 | 
[2H]C([2H])([2H])N1C(=O)c2cccc(OC(F)F)c2[C@H]2C[C@@H]1c1nc3ccc(-c4cc(F)c(P(C)(C)=O)cc4C)cc3n12 [Example 88, (7R,14R)-1-(difluoromethoxy)-11-(4-(dimethylphosphoryl)-5-fluoro-2-methylphenyl)-6-(methyl-d3)-6,7-dihydro-7,14-methanobenzo[f]benzo[4,5]imidazo[1,2-a][1,4]diazocin-5(14H)-one] | < 100 | 
